The values that follow come from patent US11807640B1 (priority 2023, dated 2023).

≈ marks a conversion by molar mass, not a printed value.

The subject of assay [1] is MDR-MTB (Multidrug-resistant Mycobacterium tuberculosis). As to the kind of experiment: microbe, parasite or virus in culture. The class given is cell-based. To be noted: 192 h, read-out: MIC (μg/mL) MDR-MTB.
The test system of assay [2] is XDR-MTB (Extensively drug-resistant Mycobacterium tuberculosis). Description: microbe, parasite or virus in culture. The class given is cell-based. The conditions noted are these: 192 h, read-out: MIC (μg/mL) XDR-MTB.

Take `COC(=O)c1c(C(=O)OC)c2cc(C(=O)OC(C)C)ccn2c1C(=O)c1ccc(Br)cc1` [KNV-7, 7-Isopropyl 1,2-dimethyl 3-(4-bromobenzoyl)indolizine-1,2,7-tricarboxylate]: the MIC in assay [1] and in assay [2] was 8 µg/mL (≈ 15.9 µM) each time.
Turning to `CCOC(=O)c1cc(C(=O)c2ccc(F)cc2)n2ccc(C(=O)OC(C)C)cc12` [KNV-4, 1-Ethyl 7-isopropyl 3-(4-fluorobenzoyl)indolizine-1,7-dicarboxylate], the MIC in assay [1] was 4 µg/mL (≈ 10.1 µM); in assay [2], 32 µg/mL (≈ 80.5 µM).
